Source: ChEMBL document CHEMBL1909590, “Design, synthesis and docking studies of new quinoline-3-carbohydrazide derivatives as antitubercular agents” (2011)
Values after ≈ are worked out from the molar mass of the structure shown.

Assays:
Format in all cases: functional
Staphylococcus aureus = experiment: Antibacterial activity against Staphylococcus aureus ATCC 25923 after 18 to 25 hrs by serial plate dilution method
Streptococcus pyogenes = experiment: Antibacterial activity against Streptococcus pyogenes clinical isolate after 18 to 25 hrs by serial plate dilution method
Pseudomonas aeruginosa = experiment: Antibacterial activity against Pseudomonas aeruginosa ATCC 27853 after 18 to 25 hrs by serial plate dilution method
Klebsiella pneumoniae = experiment: Antibacterial activity against Klebsiella pneumoniae clinical isolates after 18 to 25 hrs by serial plate dilution method
Escherichia coli = experiment: Antibacterial activity against Escherichia coli ATCC 25922 after 18 to 25 hrs by serial plate dilution method
[1] = tested on: Mycobacterium tuberculosis; experiment: Antimycobacterial activity against Mycobacterium tuberculosis H37Rv ATCC 27294 using compound level ranging from 1 to 100 ug/mL after 7 days by resazurin reduction test; details: H37Rv ATCC 27294, 168 h
[2] = tested on: Mycolicibacterium smegmatis; experiment: Antimycobacterial activity against Mycobacterium smegmatis MC2 ATCC 19420 using compound level ranging from 1 to 100 ug/mL after 7 days by resazurin reduction test; details: MC2 ATCC 19420, 168 h
[3] = tested on: Mycolicibacterium fortuitum; experiment: Antimycobacterial activity against Mycobacterium fortuitum ATCC 19542 using compound level ranging from 1 to 100 ug/mL after 7 days by resazurin reduction test; details: ATCC 19542, 168 h
[4] = tested on: Mycobacterium tuberculosis; experiment: Growth inhibition of Mycobacterium tuberculosis H37Rv ATCC 27294 using compound level ranging from 1 to 100 ug/mL after 7 days by resazurin reduction test
[5] = tested on: Mycobacterium tuberculosis; experiment: Antimycobacterial activity against Mycobacterium tuberculosis H37Rv ATCC 27294 using compound level ranging from 0.3125 to 5 ug/mL after 7 days by resazurin reduction test; details: H37Rv ATCC 27294, 168 h
[6] = tested on: Mycolicibacterium fortuitum; experiment: Antimycobacterial activity against Mycobacterium fortuitum ATCC 19542 using compound level ranging from 0.3125 to 5 ug/mL after 7 days by resazurin reduction test; details: ATCC 19542, 168 h
[7] = tested on: Mycolicibacterium smegmatis; experiment: Antimycobacterial activity against Mycobacterium smegmatis MC2 ATCC 19420 using compound level ranging from 0.3125 to 5 ug/mL after 7 days by resazurin reduction test; details: MC2 ATCC 19420, 168 h

SMILES | MIC (Staphylococcus aureus) [µg/mL] | MIC (Streptococcus pyogenes) [µg/mL] | MIC (Pseudomonas aeruginosa) [µg/mL] | MIC (Klebsiella pneumoniae) [µg/mL] | MIC (Escherichia coli) [µg/mL] | MIC [1] [µg/mL] | MIC [2] [µg/mL] | MIC [3] [µg/mL] | growth inhibition (GI) [4] [%] | MIC [5] [µg/mL] | MIC [6] [µg/mL] | MIC [7] [µg/mL]
Cc1ccc(NC(=S)NNC(=O)c2cnc3c(C(F)(F)F)cccc3c2O)cc1 | 1.6 (≈ 3.81 µM) | 3.12 (≈ 7.42 µM) | 6.25 (≈ 14.9 µM) | 12.5 (≈ 29.7 µM) | 12.5 (≈ 29.7 µM) | > 100 | > 100 | > 100 | 0 | – | – | –
Cc1ccc(/C=N/NC(=O)c2cnc3c(C(F)(F)F)cccc3c2O)cc1 | 1.6 (≈ 4.29 µM) | 3.12 (≈ 8.36 µM) | 3.12 (≈ 8.36 µM) | 0.8 (≈ 2.14 µM) | 3.12 (≈ 8.36 µM) | 10 (≈ 26.8 µM) | > 100 | > 100 | <90 | 10 (≈ 26.8 µM) | – | –
Cn1nnc2cc(/C=N\NC(=O)c3cnc4c(C(F)(F)F)cccc4c3O)ccc21 | 0.8 (≈ 1.93 µM) | 0.4 (≈ 0.965 µM) | 1.6 (≈ 3.86 µM) | 0.8 (≈ 1.93 µM) | 0.4 (≈ 0.965 µM) | 10 (≈ 24.1 µM) | > 100 | > 100 | <90 | 5 (≈ 12.1 µM) | – | –
O=C(N/N=C/c1cnc[nH]1)c1cnc2c(C(F)(F)F)cccc2c1O | 0.8 (≈ 2.29 µM) | 0.4 (≈ 1.15 µM) | 0.8 (≈ 2.29 µM) | 0.4 (≈ 1.15 µM) | 0.2 (≈ 0.573 µM) | 1 (≈ 2.86 µM) | > 1000 | 10 (≈ 28.6 µM) | 90 | 1.25 (≈ 3.58 µM) | 10 (≈ 28.6 µM) | –
O=C(NNC(=S)Nc1cccc(Cl)c1)c1cnc2c(C(F)(F)F)cccc2c1O | 0.8 (≈ 1.81 µM) | 1.6 (≈ 3.63 µM) | 3.12 (≈ 7.08 µM) | 3.12 (≈ 7.08 µM) | 3.12 (≈ 7.08 µM) | 10 (≈ 22.7 µM) | 10 (≈ 22.7 µM) | > 100 | <90 | 2.5 (≈ 5.67 µM) | – | 2.5 (≈ 5.67 µM)
CSc1ccccc1/C=N/NC(=O)c1cnc2c(C(F)(F)F)cccc2c1O | 1.6 (≈ 3.95 µM) | 3.12 (≈ 7.7 µM) | 3.12 (≈ 7.7 µM) | 3.12 (≈ 7.7 µM) | 6.25 (≈ 15.4 µM) | > 100 | > 100 | > 100 | 0 | – | – | –
Cc1cc(C)cc(NC(=O)NNC(=O)c2cnc3c(C(F)(F)F)cccc3c2O)c1 | 0.8 (≈ 1.91 µM) | 1.6 (≈ 3.82 µM) | 3.12 (≈ 7.46 µM) | 3.12 (≈ 7.46 µM) | 3.12 (≈ 7.46 µM) | 10 (≈ 23.9 µM) | > 100 | > 100 | <90 | 2.5 (≈ 5.98 µM) | – | –
NNC(=O)c1ccncc1 [ISONIAZID] | – | – | – | – | – | 0.7 (≈ 5.1 µM) | 50 (≈ 365 µM) | 12.5 (≈ 91.1 µM) | 95 | 0.7 (≈ 5.1 µM) | 12.5 (≈ 91.1 µM) | 50 (≈ 365 µM)
O=C(N/N=C/c1ccc(OC(F)(F)C(F)F)cc1)c1cnc2c(C(F)(F)F)cccc2c1O | 3.12 (≈ 6.56 µM) | 12.5 (≈ 26.3 µM) | 6.25 (≈ 13.1 µM) | 3.12 (≈ 6.56 µM) | 6.25 (≈ 13.1 µM) | 10 (≈ 21 µM) | 10 (≈ 21 µM) | > 100 | <90 | 5 (≈ 10.5 µM) | – | 10 (≈ 21 µM)
COC(=O)Cc1cc(/C=N/NC(=O)c2cnc3c(C(F)(F)F)cccc3c2O)co1 | 6.25 (≈ 14.8 µM) | 12.5 (≈ 29.7 µM) | 12.5 (≈ 29.7 µM) | 6.25 (≈ 14.8 µM) | 3.12 (≈ 7.41 µM) | 10 (≈ 23.7 µM) | > 100 | > 100 | <90 | 5 (≈ 11.9 µM) | – | –
CCc1ccc(NC(=O)NNC(=O)c2cnc3c(C(F)(F)F)cccc3c2O)cc1 | 6.25 (≈ 14.9 µM) | 12.5 (≈ 29.9 µM) | 12.5 (≈ 29.9 µM) | 6.25 (≈ 14.9 µM) | 3.12 (≈ 7.46 µM) | 10 (≈ 23.9 µM) | > 100 | > 100 | <90 | 12.5 (≈ 29.9 µM) | – | –
